In one series the test system is Rat hepatocyte. Put plainly: Metabolic stability assay (rat hepatocyte Clint). Type of series: in vitro ADME. The conditions noted are these: 1 μM compound, cryopreserved hepatocytes 1 million cells per mL. The protocol:
Viability of cryopreserved hepatocytes was determined using trypan blue and the cell conc. was adjusted to […] with buffer. 1 μM compound (in Acetonitrile; 0.01% DMSO) was incubated with 250 μL of hepatocytecells (1 million cells per mL) in a 96 deep well plate. Reaction was stopped at different time points (0, 0.5, 5, 15, 30, 45, 60, 80, 100 and 120 min) by addition of 3 volumes of chilled acetonitrile to 20 μL of reaction mixture and centrifuged at 4° C. for 15 min. 40 μL of supernatant was diluted to 200 μL with pure water and analyzed using LC-MS/MS.
In vitro hepatocyte clearance was estimated based on determination of elimination half-life (T1/2) of compounds disappearance from their initial concentrations. Peak area ratios of each compound (test or control) to IS was calculated. Drug elimination rate constant k (min−1), T1/2 (min), and in vitro intrinsic clearance CLint (μL/min/E6) was calculated according to the following equations: […]
Where Chep (cells×μL^−1) is the cell concentration in the incubation system.

For series [1], the target named is Full length human DNAPK protein (Homo sapiens, UniProt P78527). Briefly: DNA-PK enzymatic assay (TR-FRET). It is filed as biochemical. The conditions noted are these: 10 μM ATP, 1.6 μM peptide substrate. (TR-FRET usually uses a lanthanide donor and a delayed reading to cut background.)
Series [2] can be described thus: Metabolic stability assay (human microsomal Clint). Type of series: in vitro ADME. The conditions noted are these: 1 mg/mL microsomes, 1 mM NADPH, 37° C.; for microsomal CLint at 1 μM: human, pooled human liver microsomes, pH 7.4, 1 μM compound; for Human liver microsomal CLint: 1 μM compound. The protocol: 1 μM compound was incubated with 1 mg/mL of microsomes (Pooled HLM with 20 mg/ml protein cone) at 37° C. in 250 μL of buffer (100 mM phosphate buffer, pH-7.4) containing 1 mM NADPH solution. 20 μL of incubation mix was quenched with 5 volumes chilled acetonitrile at different time points 0, 0.5, 5, 10, 15, 20 and 30 min in a fresh 96 well plate. The quench plate was centrifuged at 4000 rpm for 15 min. 40 μL of supernatant was diluted to 200 μL with pure water and analyzed using LC-MS/MS.
In vitro intrinsic clearance of the drugs in the microsome CLint (μl/min/mg) was calculated in the similar manner as the CLint in the hepatocyte.
On the technique in general: Liver microsomes are vesicles of endoplasmic reticulum, rich in cytochrome P450 enzymes.

The test system of another series is MDR1, BCRP. Briefly: MDCKII-MDR1-BCRP efflux assay. It is filed as in vitro ADME. The conditions noted are these: dog, pH 7.4, 5 μM compound, HBSS pH 7.4, read-out: MDCK-Mdr1-BCRP efflux ratio. The protocol:
The apical-to-basolateral (A-B) and basolateral-to-apical (B-A) transport of compound in HBSS (25 mM HEPES, pH 7.4) was measured across MDCKII-MDR1-BCRP cell monolayers. Incubations were performed at approximately 37° C. for 120 min, with functionality of the test system being confirmed using 5 μM digoxin as a positive control substrate. Transport of 5 μM compound and control compound were determined by quantifying substrate concentration in the incubation medium of donor compartment at the beginning of the incubation period, and both donor and receiver compartments at the end of the incubation period. The data was used to calculate the apparent permeability (Papp). All incubations were performed in triplicate and integrity of the cell monolayers was confirmed using the marker Lucifer yellow.
The permeability coefficient Pexact (cm/s) was calculated using the equation: […]
The Pexact ratio was calculated using the equation: […]
The efflux ratio was calculated using the equation: […]
Where dCr/dt is the cumulative concentration of compound in the receiver chamber as a function of time (μM/s); Vr is the solution volume in the receiver chamber (0.1 mL on the apical side, 0.3 mL on the basolateral side); A is the surface area for the transport, i.e. 0.11 cm2 for the area of the monolayer; CO is the initial concentration in the donor chamber (μM).

Molecules are shown by their SMILES. pIC50: −log10 of the molar value.

The pIC50 is the IC50 on a negative log10 scale, so that one unit is a factor of ten. A higher pIC50 goes with a low IC50. By microsomal CLint is commonly meant the rate of metabolic loss divided by the concentration. Lower therefore signals slow turnover.

On to `Cc1cc2nccn2cc1Nc1ncc2c(n1)c(C1=CCOCC1)nn2C` [Example 6, 3-(3,6-dihydro-2H-pyran-4-yl)-1-methyl-N-(7-methylimidazo[1,2-a]pyridin-6-yl)-1H-pyrazolo[4,3-d]pyrimidin-5-amine], for which the “Rat hepatocyte CLint (μl/min/10^−6 cells)” value (shortened to “Rat hepatocyte CLint”) with Rat hepatocyte is 6.8 μl/min/10^−6 cells. The compound also gave a negative logarithm of the IC50 (pIC50) in series [1] of 8.80. For the same compound, the intrinsic clearance (microsomal CLint) at 1 μM in series [2] turned out to be 35.5 µL/min/mg. Also, the efflux ratio at 120 min, 5 μM in the series with MDR1, BCRP came to 4.9.
As for `CCC(C)n1nc(C)c2cnc(Nc3cn4ncnc4cc3C)nc21` (single isomer, unassigned) [Example 61, 1-(sec-butyl)-3-methyl-N-(7-methyl-[1,2,4]triazolo[1,5-a]pyridin-6-yl)-1H-pyrazolo[3,4-d]pyrimidin-6-amine], the “Rat hepatocyte CLint” value with Rat hepatocyte worked out at 5.2 μl/min/10^−6 cells. In addition, the pIC50 in series [1] is 8.46. Also, in series [2], the intrinsic metabolic clearance (microsomal CLint) at 1 μM came out at 34.5 µL/min/mg.
For the compound `Cc1cc2ncnn2cc1Nc1ncc2c(C)nn(C3CC4(CCC4)C3)c2n1` [Example 43, 3-methyl-N-(7-methyl-[1,2,4]triazolo[1,5-a]pyridin-6-yl)-1-(spiro[3.3]heptan-2-yl)-1H-pyrazolo[3,4-d]pyrimidin-6-amine], the “Rat hepatocyte CLint” value in the series on Rat hepatocyte amounted to 16.9 μl/min/10^−6 cells. In series [1], this compound showed a pIC50 of 8.82. For the same compound, the intrinsic metabolic clearance (microsomal CLint) at 1 μM in series [2] stood at 173 µL/min/mg.
In series [1], `Cc1cc2ncnn2cc1Nc1ncc2c(n1)c(C1CCOCC1C)nn2C` (single isomer, unassigned) [Example 55, 1-methyl-N-(7-methyl-[1,2,4]triazolo[1,5-a]pyridin-6-yl)-3-(3-methyltetrahydro-2H-pyran-4-yl)-1H-pyrazolo[4,3-d]pyrimidin-5-amine] gave a negative logarithm of the IC50 (pIC50) of 8.60.
With `COCCC(C)n1nc(C)c2cnc(Nc3cn4ncnc4cc3C)nc21` (single isomer, unassigned) [Example 68, 1-(4-methoxybutan-2-yl)-3-methyl-N-(7-methyl-[1,2,4]triazolo[1,5-a]pyridin-6-yl)-1H-pyrazolo[3,4-d]pyrimidin-6-amine], the “Rat hepatocyte CLint” value in the series with Rat hepatocyte was found to be 37.0 μl/min/10^−6 cells. Also, the negative logarithm of the IC50 (pIC50) in series [1] is 7.19. For the same compound, in series [2], the “Human liver microsomal CLint” value amounted to 201.9 µL/min/mg.
Regarding `Cc1cc2ncnn2cc1Nc1ncc2c(C)nn([C@H]3CC[C@@H](F)CC3)c2n1` [Example 27, 1-((1s,4s)-4-fluorocyclohexyl)-3-methyl-N-(7-methyl-[1,2,4]triazolo[1,5-a]pyridin-6-yl)-1H-pyrazolo[3,4-d]pyrimidin-6-amine], the “Rat hepatocyte CLint” value with Rat hepatocyte is on record as 10.8 μl/min/10^−6 cells. The negative-log IC50 (pIC50) in series [1] is 9.00. In addition, the microsomal CLint at 1 μM in series [2] worked out at 41.4 µL/min/mg.
Turning to `Cc1cc2ncnn2cc1Nc1ncc2c(C)nn(CC3CCC3)c2n1` [Example 46, 1-(cyclobutylmethyl)-3-methyl-N-(7-methyl-[1,2,4]triazolo[1,5-a]pyridin-6-yl)-1H-pyrazolo[3,4-d]pyrimidin-6-amine], the “Rat hepatocyte CLint” value in the series on Rat hepatocyte was determined as 60.9 μl/min/10^−6 cells. This compound gave a pIC50 in series [1] of 8.48. Besides, the intrinsic clearance (microsomal CLint) at 1 μM in series [2] came out at 105 µL/min/mg.
In the case of `COC(C)Cn1nc(C)c2cnc(Nc3cn4ncnc4cc3C)nc21` (single isomer, unassigned) [Example 70, 1-(2-methoxypropyl)-3-methyl-N-(7-methyl-[1,2,4]triazolo[1,5-a]pyridin-6-yl)-1H-pyrazolo[3,4-d]pyrimidin-6-amine], the pIC50 in series [1] was 8.37.
`COCCC(C)n1nc(C)c2cnc(Nc3cn4ncnc4cc3C)nc21` (single isomer, unassigned) [Example 67, 1-(4-methoxybutan-2-yl)-3-methyl-N-(7-methyl-[1,2,4]triazolo[1,5-a]pyridin-6-yl)-1H-pyrazolo[3,4-d]pyrimidin-6-amine]: the “Rat hepatocyte CLint” value in the series with Rat hepatocyte was 8.3 μl/min/10^−6 cells. In addition, the negative-log IC50 (pIC50) in series [1] was 7.57. Also, the intrinsic metabolic clearance (microsomal CLint) at 1 μM in series [2] worked out at 104 µL/min/mg.
On to `Cc1cc2ncnn2cc1Nc1ncc2c(n1)c(C1CCOCC1C)nn2C` (single isomer, unassigned) [Example 56, 1-methyl-N-(7-methyl-[1,2,4]triazolo[1,5-a]pyridin-6-yl)-3-(3-methyltetrahydro-2H-pyran-4-yl)-1H-pyrazolo[4,3-d]pyrimidin-5-amine], for which the negative logarithm of the IC50 (pIC50) in series [1] is 8.96.
As to `Cc1cc2ncnn2cc1Nc1ncc2c(C)nn(C3CCC3)c2n1` [Example 45, 1-cyclobutyl-3-methyl-N-(7-methyl-[1,2,4]triazolo[1,5-a]pyridin-6-yl)-1H-pyrazolo[3,4-d]pyrimidin-6-amine], in the series with Rat hepatocyte, the “Rat hepatocyte CLint” value is reported as 64.0 μl/min/10^−6 cells. Further, the negative-log IC50 (pIC50) in series [1] is 8.37. This compound gave a microsomal CLint at 1 μM in series [2] of 70 µL/min/mg.
For `CCC(C)n1nc(C)c2cnc(Nc3cn4ncnc4cc3C)nc21` (single isomer, unassigned) [Example 62, 1-(sec-butyl)-3-methyl-N-(7-methyl-[1,2,4]triazolo[1,5-a]pyridin-6-yl)-1H-pyrazolo[3,4-d]pyrimidin-6-amine], the “Rat hepatocyte CLint” value in the series on Rat hepatocyte is on record as 11.7 μl/min/10^−6 cells. For the same compound, in series [1], the pIC50 was 8.29. For the same compound, in series [2], the “Human liver microsomal CLint” value was 42.4 µL/min/mg.
With `Cc1cc2nccn2cc1Nc1ncc2c(C)nn(-c3ccc(C#N)cc3)c2n1` [Example 73, 4-(3-methyl-6-((7-methylimidazo[1,2-a]pyridin-6-yl)amino)-1H-pyrazolo[3,4-d]pyrimidin-1-yl)benzonitrile], in series [1], the pIC50 was 8.89.
Consider `Cc1cc2ncnn2cc1Nc1ncc2c(C)nn([C@H]3CC[C@H](F)CC3)c2n1` [Example 28, 1-((1r,4r)-4-fluorocyclohexyl)-3-methyl-N-(7-methyl-[1,2,4]triazolo[1,5-a]pyridin-6-yl)-1H-pyrazolo[3,4-d]pyrimidin-6-amine], for which, in the series on Rat hepatocyte, the “Rat hepatocyte CLint” value turned out to be 14.1 μl/min/10^−6 cells. In series [1], the pIC50 was 8.89. This compound also registered a microsomal CLint at 1 μM in series [2] of 70 µL/min/mg.
`Cc1cc2nccn2cc1Nc1ncc2c(C)nn(C3CCC(F)(F)CC3)c2n1` [Example 22, 1-(4,4-difluorocyclohexyl)-3-methyl-N-(7-methylimidazo[1,2-a]pyridin-6-yl)-1H-pyrazolo[3,4-d]pyrimidin-6-amine]: the “Rat hepatocyte CLint” value in the series with Rat hepatocyte came out at 40.9 μl/min/10^−6 cells. The negative logarithm of the IC50 (pIC50) in series [1] is 8.89. Moreover, the microsomal CLint at 1 μM in series [2] was determined as 115 µL/min/mg.
In series [1], `COC(C)Cn1nc(C)c2cnc(Nc3cn4ncnc4cc3C)nc21` (single isomer, unassigned) [Example 71, 1-(2-methoxypropyl)-3-methyl-N-(7-methyl-[1,2,4]triazolo[1,5-a]pyridin-6-yl)-1H-pyrazolo[3,4-d]pyrimidin-6-amine] showed a pIC50 of 8.19.
Turning to `Cc1cc2ncnn2cc1Nc1ncc2c(C)nn(C3CCCC3)c2n1` [Example 47, 1-cyclopentyl-3-methyl-N-(7-methyl-[1,2,4]triazolo[1,5-a]pyridin-6-yl)-1H-pyrazolo[3,4-d]pyrimidin-6-amine], the “Rat hepatocyte CLint” value in the series on Rat hepatocyte amounted to 43.3 μl/min/10^−6 cells. The pIC50 in series [1] is 8.77. The microsomal CLint at 1 μM in series [2] is 89.7 µL/min/mg.
As to `COC1CC2(C1)CC(n1nc(C)c3cnc(Nc4cn5ncnc5cc4C)nc31)C2` (stereo not shown) [Example 54, 1-(6-methoxyspiro[3.3]heptan-2-yl)-3-methyl-N-(7-methyl-[1,2,4]triazolo[1,5-a]pyridin-6-yl)-1H-pyrazolo[3,4-d]pyrimidin-6-amine], the negative-log IC50 (pIC50) in series [1] was 8.82.
Turning to `Cc1cc2ncnn2cc1Nc1ncc2c(C)nn(CCOC(F)(F)F)c2n1` [Example 64, 3-methyl-N-(7-methyl-[1,2,4]triazolo[1,5-a]pyridin-6-yl)-1-(2-(trifluoromethoxy)ethyl)-1H-pyrazolo[3,4-d]pyrimidin-6-amine], the “Rat hepatocyte CLint” value with Rat hepatocyte amounted to 38.6 μl/min/10^−6 cells. The compound also had a negative logarithm of the IC50 (pIC50) in series [1] of 8.44. The compound further returned a microsomal CLint at 1 μM in series [2] of 50.8 µL/min/mg.

The record behind these values is patent publication US12630565B2, “DNA-dependent protein kinase inhibitor” (DIZAL (JIANGSU) PHARMACEUTICAL CO., LTD., priority 2019, dated 2026).
